Results from US12194039B2, “Methods of treating heart failure by administering omecamtiv mecarbil” (Cytokinetics, Inc., priority 2020, dated 2025).
Where two headings read alike, the source gives them in different places.

Columns and labels:
[1] = system: patients with heart failure and reduced ejection fraction; type: in vivo, human; conditions: for Creatinine, change from baseline, mean / Heart rate, change from baseline, mean / Potassium, change from baseline, mean / Systolic blood pressure, change from baseline, mean / Troponin, change from baseline, median: N = 4110
Protocol: All eligible participants were randomized 1:1 to oral administration of either placebo or omecamtiv mecarbil (pharmacokinetic-guided dosing: 25, 37.5 or 50 mg) twice daily. Pre-dose plasma concentrations of omecamtiv mecarbil were measured at weeks 2 and 6 with respective dose adjustments on weeks 4 and 8. The patient and investigator were blinded to the plasma concentrations and dispensed dose. The full schedule of assessments is provided in the protocol available at NEJM.org. Study drug was temporarily withheld if the participant experienced clinical signs or symptoms consistent with acute myocardial infarction or ischemia.
Other outcomes of interest included the effects of omecamtiv mecarbil on vital signs and selected laboratory values (Table 3).
(§1) Continuous variables were summarized as means±standard deviations (SD) or medians and first and third quartiles (Q1, Q3), as appropriate. Categorical variables were summarized as counts and percentages. […] The change from baseline on NT-proBNP analysis included all participants who underwent randomization. The difference column is the exponentiated change from baseline on the log scale using a mixed model containing the log baseline value, region, baseline eGFR, scheduled visit, treatment group and interaction of treatment with scheduled visit.

[2] = system: patients with heart failure and reduced ejection fraction; type: in vivo
Protocol: The study was event-driven and was ended after approximately 1590 cardiovascular deaths. The overall type I error was 0.05 for 2-sided testing across primary and secondary endpoints with control for multiplicity testing. A single interim efficacy analysis was conducted after approximately two-thirds of the targeted number of cardiovascular deaths accrued with a one-sided alpha of 0.0005. Given the negligible impact of this interim on the final alpha, the full 0.05 was used in the final analysis consistent with the Haybittle-Peto approach. […] The mean differences in the KCCQ TSS change from baseline to Week 24 were estimated using a mixed model stratified by randomization setting (inpatient and outpatient) containing baseline TSS value, region, baseline eGFR, scheduled visit, treatment group, and the interaction of treatment group with scheduled visit. A joint omnibus F-test was used to test the treatment effect for the KCCQ TSS. An overall pooled estimate for the KCCQ TSS treatment difference to placebo were conducted using a likelihood based approach. The prespecified safety analyses included: serious adverse events; adverse events associated with discontinuation of study treatment; “adverse events of interest” i.e., ventricular arrhythmias requiring treatment and positively adjudicated major cardiac ischemic events (including myocardial infarction, hospitalization for unstable angina, coronary revascularization). […] All analyses were performed with the use of SAS software, version 9.4 (SAS Institute).
Excluding the discontinuations due to death, the study drug was stopped in 847 patients (20.6%) receiving omecamtiv mecarbil and 897 patients (21.9%) receiving placebo with 371 (9.0%) in the omecamtiv mecarbil group and 382 (9.3%) receiving placebo discontinuing due to an adverse event. Patients receiving omecamtiv mecarbil had no change in potassium or creatinine concentrations during the course of the trial compared to placebo. Patients receiving omecamtiv mecarbil had increased median concentrations of high sensitivity troponin-I from baseline of 0.004 ng/mL (lower limit of quantification, 0.010 ng/mL) compared to placebo at week 24. […] Ventricular arrhythmias were similar in patients receiving omecamtiv mecarbil compared to placebo (Table 3).
as §1
Table 4 summarizes the adverse events reported in 1% or more of patients.

[3] = treatment-emergent serious adverse event, preferred term, N = 4110

COC(=O)N1CCN(Cc2cccc(NC(=O)Nc3ccc(C)nc3)c2F)CC1 [omecamtiv mecarbil]
Creatinine, change from baseline, difference vs placebo ([1]; Week 24): 0.007 mg/dL | Heart rate, change from baseline, difference vs placebo ([1]; Week 24): −1.61 bpm | Potassium, change from baseline, difference vs placebo ([1]; Week 24): 0.002 mmol/L | Systolic blood pressure, change from baseline, difference vs placebo ([1]; Week 24): −0.13 mmHg | Creatinine, change from baseline, mean ([1]; Week 24): 0.03 mg/dL | Heart rate, change from baseline, mean ([1]; Week 24): −2.1 bpm | Potassium, change from baseline, mean ([1]; Week 24): -0.01 mmol/L | Systolic blood pressure, change from baseline, mean ([1]; Week 24): 1.4 mmHg | Troponin, change from baseline, median ([1]; Week 24): 0.004 ng/mL | NT-proBNP, change from baseline, median ([1]; Week 24, all randomized participants): -251 pg/mL | Troponin, change from baseline, difference vs placebo ([1]; Week 24, lower limit of quantification 0.010 ng/mL): 0.004 ng/mL | NT-proBNP, exponentiated change from baseline on the log scale, omecamtiv mecarbil vs placebo ([1]; Week 24, mixed model): 0.90 | NT-proBNP concentrations compared to placebo ([1]; Week 24, result in words): significantly decreased | Creatinine, change from baseline, difference vs placebo ([1]; Week 48): 0.010 mg/dL | Heart rate, change from baseline, difference vs placebo ([1]; Week 48): −1.75 bpm | Potassium, change from baseline, difference vs placebo ([1]; Week 48): -0.007 mmol/L | Systolic blood pressure, change from baseline, difference vs placebo ([1]; Week 48): 0.16 mmHg | Troponin, change from baseline, difference vs placebo ([1]; Week 48): 0.002 ng/mL | Creatinine, change from baseline, mean ([1]; Week 48): 0.06 mg/dL | Heart rate, change from baseline, mean ([1]; Week 48): −2.0 bpm | Potassium, change from baseline, mean ([1]; Week 48): -0.03 mmol/L | Systolic blood pressure, change from baseline, mean ([1]; Week 48): 2.0 mmHg | Troponin, change from baseline, median ([1]; Week 48): 0.002 ng/mL | Heart rate compared to placebo ([1]; at 24 and 48 weeks, result in words): small but significant decrease | Change in systolic blood pressure, omecamtiv mecarbil vs placebo ([1]; at 24 or 48 weeks, result in words): no significant difference | Potassium or creatinine concentrations compared to placebo ([1]; during the course of the trial, result in words): no change | Acute kidney injury, % ([2]; human, in vivo): (3.1) % | Acute myocardial infarction, % ([2]; human, in vivo): (1.7) % | Adjudicated major cardiac ischemic events, no. ([2]; human, in vivo): 200 no. | Adjudicated major cardiac ischemic events, relative risk ([2]; human, in vivo): 1.06 | Angina pectoris, % ([2]; human, in vivo): (1.0) % | Angina unstable, % ([2]; human, in vivo): (1.5) % | Atrial fibrillation, % ([2]; human, in vivo): (2.3) % | Cardiac arrest, % ([2]; human, in vivo): (1.2) % | Cardiac failure acute, % ([2]; human, in vivo): (5.2) % | Cardiac failure chronic, % ([2]; human, in vivo): (3.8) % | Cardiac failure congestive, % ([2]; human, in vivo): (3.6) % | Cardiac failure, % ([2]; human, in vivo): (24.0) % | Cardiogenic shock, % ([2]; human, in vivo): (1.8) % | Chronic kidney disease, % ([2]; human, in vivo): (0.9) % | Chronic obstructive pulmonary disease, % ([2]; human, in vivo): (1.5) % | Coronary revascularization (adjudicated), % ([2]; human, in vivo): (2.8) % | Coronary revascularization (adjudicated), no. ([2]; human, in vivo): 115 no. | Drug discontinuation due to an adverse event, no. ([2]; human, in vivo): 371 no. | Drug discontinuation due to an adverse event, relative risk ([2]; human, in vivo): 0.97 | Hospitalized for unstable angina (adjudicated), % ([2]; human, in vivo): (0.6) % | Hospitalized for unstable angina (adjudicated), no. ([2]; human, in vivo): 25 no. | Hypotension, % ([2]; human, in vivo): (1.2) % | Myocardial infarction (adjudicated major cardiac ischemic event), no. ([2]; human, in vivo): 122 no. | Myocardial infarction, % ([2]; human, in vivo): (0.9) % | Pneumonia, % ([2]; human, in vivo): (4.2) % | Renal failure, % ([2]; human, in vivo): (0.6) % | Renal impairment, % ([2]; human, in vivo): (0.6) % | Respiratory tract infection, % ([2]; human, in vivo): (0.4) % | Sepsis, % ([2]; human, in vivo): (1.2) % | Septic shock, % ([2]; human, in vivo): (0.9) % | Serious adverse events (subjects reporting treatment-emergent serious adverse events), % ([2]; human, in vivo): (57.7) % | Serious adverse events (subjects reporting treatment-emergent serious adverse events), no. ([2]; human, in vivo): 2373 no. | Serious adverse events, relative risk ([2]; human, in vivo): 0.97 | Serious adverse ventricular arrhythmia requiring treatment, % ([2]; human, in vivo): (2.9) % | Serious adverse ventricular arrhythmia requiring treatment, no. ([2]; human, in vivo): 119 no. | Serious adverse ventricular arrhythmia requiring treatment, relative risk ([2]; human, in vivo): 0.93 | Stroke, % ([2]; human, in vivo): (1.8) % | Stroke, no. ([2]; human, in vivo): 76 no. | Stroke, relative risk ([2]; human, in vivo): 0.68 | Study drug stopped, % of patients ([2]; human, in vivo): 20.6% | Study drug stopped, no. of patients ([2]; human, in vivo): 847 no. | Syncope, % ([2]; human, in vivo): (1.0) % | Torsade de pointes/QT prolongation (narrow SMQ), % ([2]; human, in vivo): (4.3) % | Torsade de pointes/QT prolongation (narrow SMQ), no. ([2]; human, in vivo): 176 no. | Torsade de pointes/QT prolongation (narrow SMQ), relative risk ([2]; human, in vivo): 0.90 | Ventricular fibrillation, % ([2]; human, in vivo): (0.7) % | Ventricular tachyarrhythmias (narrow SMQ), % ([2]; human, in vivo): (7.1) % | Ventricular tachyarrhythmias (narrow SMQ), no. ([2]; human, in vivo): 290 no. | Ventricular tachyarrhythmias (narrow SMQ), relative risk ([2]; human, in vivo): 0.95 | Ventricular tachycardia, % ([2]; human, in vivo): (2.6) % | lschaemic stroke, % ([2]; human, in vivo): (0.9) % | Death, % [2, 3]: (1.6) % | Sudden cardiac death, % [2, 3]: (0.7) % | Sudden death, % [2, 3]: (1.3) %
